Results on 2 compounds are retold here after patent publication US7029916B2, “Apparatus and method for flow electroporation of biological samples” (MAXCYTE, Inc., priority 2001, dated 2006).

Data set [1] has as its target T1, hemoglobin (Homo sapiens, UniProt P68871). The following applies: relative to DPG; cited from earlier work.
Data set [2] addresses T1, hemoglobin. The following applies: pH 7.4, 37° C.; cited from earlier work.
The next data set relates to resting Lymphocytes. Briefly: Transfection efficiency analysis, resting lymphocytes. The class given is cell-based. As for the experimental part:
Primary lymphocytes were suspended in B&K buffer (125 mM KCl, 15 mM NaCl, 1.2 mM MgCl2, 3 mM glucose, 25 mM Hepes, pH 7.4) cell concentration was set from 1×10^7 cells/mL to 6×10^8 cells/mL together with DNA plasmid from 50 μg/mL to 1 mg/mL. Electroporation, 2.3 kV/cm, 400 μs, 4 pulses for small volume experiments (15 μl) or 2.2 kV/cm, 1.6 ms, 1 pulse for large volume experiments (0.5 mL–2 mL) was performed at room temperature. Following electroporation, cells were incubated in B&K buffer for 20 min at 37° C. for small volume experiments, or diluted by 10× volume of culture medium (RPMI-1640+10% fetal bovine serum+1% Pen-strep+2 mM L-glutamine) for large volume experiments. Cells were cultured in culture medium for various periods (up to 72 hours) and the transfection efficiency was analyzed.
Seven transgenes (Ds-Red, eGFP, βGal, hEndostatin, hEPO, hIFNα, hIL-2) were tested in these experiments. […] When pCMV-Ds-Red or pCMV-EGFP was used, the percentage of the fluorescent cells was counted, by FACS or by manual counting under phase contrast and fluorescence microscope, as the transfection efficiency. […] When pCMV-Endostatin was used, the Endostatin concentration in the supernatant was analyzed by ELISA kit from Cytimmune Sciences, Inc. (College Park, Md.). For pCMV-EPO electroporation, the erythropoietin concentration in the supernatant was analyzed by R&D ELISA kit (Minneapolis, Minn.).

T1 sequence (P69905 2-142 partner limits assumed): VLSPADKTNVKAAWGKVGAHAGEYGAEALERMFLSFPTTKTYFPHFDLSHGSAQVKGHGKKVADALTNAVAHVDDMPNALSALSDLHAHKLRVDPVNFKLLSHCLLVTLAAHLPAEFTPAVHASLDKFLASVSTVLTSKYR
T1 sequence (P68871 2-147 limits assumed): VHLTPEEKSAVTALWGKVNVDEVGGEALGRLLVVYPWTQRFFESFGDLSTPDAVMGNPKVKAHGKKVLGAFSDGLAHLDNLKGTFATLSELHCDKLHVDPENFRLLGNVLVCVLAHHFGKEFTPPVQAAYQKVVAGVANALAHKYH

Regarding `O=P(O)(O)O[C@H]1[C@H](OP(=O)(O)O)[C@@H](OP(=O)(O)O)[C@H](OP(=O)(O)O)[C@@H](OP(=O)(O)O)[C@H]1OP(=O)(O)O` [IHP, inositol hexaphosphate], the “affinity to hemoglobin, higher than DPG” value on hemoglobin [1] is 1000 fold. Besides, the P50 of hemoglobin at hemoglobin [2] is recorded as at most 96.4 mm Hg.
With βGal, in the data set on resting Lymphocytes, the “Efficiency (% of + cells)” value is listed as 15% and the Viability is 40%.
